Data published in patent US20040132706A1, “Composition comprising a catalyst for the dismutation of superoxide and use of the composition for preventing and treating hypotension” (priority 2003, published 2004).
“Also recorded” adds a separate entry of the source.

Legend:
anaesthetized rat [1] = experiment: LPS-induced hypotension and mortality in the anaesthetized rat; type: in vivo, Male Sprague Dawley rats
Method: (§1) Anaesthetized Rat Model. Male Sprague Dawley rats (250-300 g) were anaesthetized with inactin (100 mg/Kg intraperitoneally). The trachea was cannulated to facilitate respiration and body temperature was maintained at 37° C. by means of a heating pad. The left femoral vein was cannulated for administration of drugs. The left femoral artery was cannulated and connected to a pressure transducer to allow for the monitoring of blood pressure. Lipopolysaccharide from E. coli (LPS; 4 mg/Kg, serotype 0111:B4) was administered as a bolus intravenous injection at a volume of 0.3 ml. Control animals received saline at the same volume and by the same route. In experiments involving blood samples, such blood samples were withdrawn from the arterial cannula.
Intravenous injection of LPS (4 mg/Kg) in rats led to a profound fall in blood pressure associated with a high mortality rate (99±5% mortality at 9 hours, n=10, FIG. 3). Furthermore, the plasma levels of norepinephrine as well as the adrenochromes increased after LPS treatment (FIGS. 4a,b,c; n=10). Levels of the catecholamines and of the adrenochromes could not be evaluated at the 9 h timepoint (survival rate at this point was 1%, n=10).
(FIG. 3; n=10). Inhibition of hypotension by M40403 was associated with increased levels of catecholamines (FIGS. 4a and b) and concommittant decrease (FIG. 4c; n=10) in plasma levels of the adrenochromes, the reaction products of O2^− and these catecholamines. In addition, when the administration of M40403 was postponed until 5 hours post LPS in this model the severe hypotensive phase of this condition was reversed (FIG. 3; n=10).
When 15 mg/Kg of 5,10,15,20-tetrakis (2,4,6-trimethyl-3,5-disulfonatophenyl)-porphyrinato iron (III) (FeTMPS) was administered (i.v bolus injection 1 hour after LPS), the development of hypotension was prevented.

anaesthetized rat [2] = experiment: LPS-induced hyporeactivity to exogenous norepinephrine in the anaesthetized rat; type: in vivo, Male Sprague Dawley rats
Method: as §1
Injection of E. coli lipopolysaccharide (LPS) to rats leads to the development of hyporeactivity to exogeneously administered norepinephrine which typically occurs in the first two hours. Male Sprague Dawley rats (250-300 g, number in group) were anaesthetized and prepared according to the methods of Example 1. Increasing dosages of norepinephrine (0.1, 0.5 and 1 mg/Kg) were given as intravenous bolus injections. Animals in a control group received saline at the same volume and by the same route. The left femoral artery was cannulated and connected to a pressure transducer to allow for the monitoring of blood pressure during the experiment. The change in the blood pressure of the animals was compared to the blood pressure of animals in the control group. […] Pressor responses to norepinephrine in rats not treated with LPS were unaffected by the SOD mimetic M40403 (FIG. 2; n=6).
Injection of E. coli lipopolysaccharide (LPS) to rats leads to the development of hyporeactivity to exogeneously administered norepinephrine which typically occurs in the first two hours. Male Sprague Dawley rats (250-300 g, number in group) were anaesthetised and prepared according to the methods of Example 1. Increasing dosages of norepinephrine (0.1, 0.5 and 1 mg/Kg) were given as intravenous bolus injections. Animals in a control group received saline at the same volume and by the same route. The left femoral artery was cannulated and connected to a pressure transducer to allow for the monitoring of blood pressure during the experiment. The change in the blood pressure of the animals was compared to the blood pressure of animals in the control group.

anaesthetized rat [3] = experiment: Pressor effect of norepinephrine incubates on MAP in the anaesthetized rat; type: in vivo, Male Sprague Dawley rats; settings: n=6
Method: as §1
Male Sprague Dawley rats (250-300 g, 6 rats per group) were anaesthetized and prepared according to the methods of Example 1. 0.5 mg/Kg of norepinephrine was administered as an intravenous (i.v) bolus injection through the left femoral vein. Animals in a control group received saline at the same volume and by the same route. The left femoral artery was cannulated and connected to a pressure transducer to allow for the monitoring of blood pressure during the experiment. The change in the blood pressure of the animals was compared to the blood pressure of animals in the control group. The results of the tests can be found in FIG. 1. Norepinephrine raised the MAP of the rats by 34±3.7 mmHg (FIG. 1b; n=6). […] When SOD mimetic M40403 was included with HX/XO in the incubation mixture, the vasopressor actions of were protected as shown by its ability to restore MAP back to near control values (38±3.6 mmHg) (FIG. 1b; n=6).

[4] = Plasma catecholamine and adrenochrome concentrations after LPS; type: in vivo, Male Sprague Dawley rats; settings: M40403 0.25 mg/Kg/h given at 1 h post LPS 4 mg/Kg i.v.; n=10
Method: as §1, with “In experiments involving blood samples, such blood samples were withdrawn from the arterial cannula.” left out
Catecholamine measurements. Catecholamines in test tube samples or plasma samples were identified and quantified by high pressure liquid chromatography with electrochemical detection (HPLC-EC). […] The HPLC system is coupled to a PS-90 computer with which chromatograms were recorded and analyzed with Varian Star workstation software.
Adrenochrome measurements. The detection and quantification of the sum of the noradrenochrome and adrenochrome was carried out using an HPLC method utilising a Vydac C18 Pharmaceutical 4.6×250 mm column and with a 5% acetonitrile+95% SDS (10 mM) mobile phase (5 min elution), then 40% acetonitrile with 60% SDS plus 0.1% TFA (5 min elution) mobile phase, all eluted at […]. […]

[5] = system: O2− generated by hypoxanthine/xanthine oxidase (HX/XO); experiment: Deactivation of catecholamines by hypoxanthine/xanthine oxidase superoxide generating system, HPLC detection; type: biochemical; settings: HX 2 mM / XO 1 U/ml, n=6; for chemical detection of the catecholamines by HPLC after exposure to HX/XO: no SOD mimetic
Method: Catecholamine measurements. Catecholamines in test tube samples or plasma samples were identified and quantified by high pressure liquid chromatography with electrochemical detection (HPLC-EC). The system consists of a Varian model 2510 solvent delivery system and a model 9090 autosampler (Varian, Walnut Creek, Calif.) coupled to a C18 column and an ESA Coulochem II detector. Separations were performed isocratically using a filtered and degassed mobile phase consisting of 10% methanol, 0.1 M sodium phosphate, 0.2 mM sodium octyl sulfate and 0.1 mM EDTA, adjusted to pH 2.8 with phosphoric acid. The HPLC system is coupled to a PS-90 computer with which chromatograms were recorded and analyzed with Varian Star workstation software.
Hypoxanthine (HX;2 mM)/xanthine oxidase (XO; 1 U/ml) results in the generation of O2^− in the ratio of 2 molecules of O2^− to every one molecule of HX used.

5,10,15,20-tetrakis (2,4,6-trimethyl-3,5-disulfonatophenyl)-porphyrinato iron (III) [FeTMPS]
fall in MAP after LPS, therapeutic treatment (anaesthetized rat [1]; FeTMPS 10 mg/Kg/h at 1 h post LPS 4 mg/Kg i.v. (FIG. 7)): prevents
fall in MAP after LPS, prophylactic treatment (anaesthetized rat [1]; FeTMPS 10 mg/Kg/h at 1 h post LPS 4 mg/Kg i.v. (FIG. 8)): prevents
development of hypotension after LPS (anaesthetized rat [1]; FeTMPS 15 mg/Kg i.v. bolus injection 1 hour after LPS): prevented
hyporeactivity to exogenous norepinephrine after LPS (anaesthetized rat [2]; FeTMPS 15 mg/kg given at 1 h post LPS 4 mg/Kg): prevented; also recorded: reversed
reactivity to norepinephrine in saline treated rats (anaesthetized rat [2]; FeTMPS, saline treated rats, n=6): not significantly affected

[Cl-].[Cl-].[Mn+2].c1cc2nc(c1)CN[C@@H]1CCCC[C@H]1NCCN[C@@H]1CCCC[C@H]1NC2 [M40403]
fall in MAP (severe hypotensive phase) after LPS (anaesthetized rat [1]; M40403 0.25 mg/Kg administered at 5 h post LPS 4 mg/Kg i.v., n=10): reverses
survival by 9 h (anaesthetized rat [1]; M40403 0.25 mg/Kg/h i.v. infusion 1 hour post LPS 4 mg/Kg, n=10): 99±2%
fall in MAP (development of hypotension) after LPS (anaesthetized rat [1]; M40403 0.25 mg/Kg/h i.v. infusion from 1 h post LPS 4 mg/Kg i.v., n=10): prevents
pressor responses to norepinephrine two hours after LPS (anaesthetized rat [2]; M40403 0.25 mg/Kg, 15 min i.v. infusion 1 hour after LPS 4 mg/Kg, norepinephrine 0.1, 0.5 and 1 mg/Kg): restored
hyporeactivity to norepinephrine after LPS (anaesthetized rat [2]; M40403 1 mg/Kg, LPS 4 mg/Kg, norepinephrine 0.1-1 mg/Kg, n=6): reversed
reactivity (pressor responses) to norepinephrine in rats not treated with LPS (anaesthetized rat [2]; saline treated rats, M40403, n=6): unaffected; also recorded: not affected
ability of norepinephrine to increase MAP after incubation with HX/XO (anaesthetized rat [3]; M40403 in the incubate, incubation 5 min, norepinephrine 0.5 mg/Kg bolus i.v.): preserved
increase in MAP by norepinephrine incubated with HX/XO plus M40403 (anaesthetized rat [3]; norepinephrine 0.5 mg/Kg i.v. bolus, M40403 included in HX/XO incubation mixture): 38±3.6 mmHg
plasma concentrations of adrenochromes versus LPS alone [4]: decrease; also recorded: significantly lower
plasma concentrations of epinephrine and norepinephrine versus LPS alone [4]: increased; also recorded: significantly higher
reduction of chemical detection (HPLC) of norepinephrine and epinephrine after incubation with HX/XO ([5]; M40403 10^−6 M, incubation 5 min): prevented

CNC[C@H](O)c1ccc(O)c(O)c1 [epinephrine]
chemical detection of the catecholamines by HPLC after exposure to HX/XO [5]: significant decreases

NC[C@H](O)c1ccc(O)c(O)c1 [norepinephrine, reference compound]
increase in MAP by norepinephrine after incubation with HX/XO (anaesthetized rat [3]; norepinephrine 0.5 mg/Kg i.v. bolus, incubated with HX/XO): 17±2.5 mmHg
increase in MAP by norepinephrine (anaesthetized rat [3]; norepinephrine 0.5 mg/Kg i.v. bolus, not incubated): 34±3.7 mmHg
chemical detection of the catecholamines by HPLC after exposure to HX/XO [5]: significant decreases
